In patent US11014890B2, “Forms of (R)-N-(4-chlorophenyl)-2-(cis-4-(6-fluoroquinolin-4-yl)cyclohexyl)propanamide” (SHENZHEN RENTAI PHARMATECH LTD, priority 2018, dated 2021):

Experiments:
Type in all cases: physicochemical
[1] = high-humidity stability test (XRPD comparison); conditions: 25° C. and humidity of 92.5% RH; XRPD FIGS. 32, 33 and 34
Method: (§1) X-Ray Powder Diffractometer (XRPD)
(§2) Model: Bruker, Germany, BRUKER D8 DISCOVER
(§3) Method: Cu target Ka, voltage 40 KV, current 40 mA, test angle 3-45°, step size 0.02, exposure time 0.2 S, light pipe slit width 1 mm, detector slit width 2.7 mm.
(§4) The products prepared in Embodiment 1 and Embodiment 6, and the amorphous active pharmaceutical ingredient were respectively subjected to experimental tests for light stability, high-temperature stability, accelerated stability, high-humidity stability, and water adsorption.

[2] = water adsorption test (DVS); conditions: 25° C., humidity 0-90, 10% per step, weight change less than 0.002% in each step of 10 minutes; FIGS. 17, 18 and 30
Method: DVS Model: SMS, U.K, DVS intrinsic Method: 25° C., 10% humidity per step, the judgment standard is less than 0.002% for 10 min The products prepared in Embodiment 1 and Embodiment 6, and the amorphous active pharmaceutical ingredient were respectively subjected to experimental tests for light stability, high-temperature stability, accelerated stability, high-humidity stability, and water adsorption. (5) The test products were respectively subjected to the water adsorption test, the experimental conditions were as follows: 25° C., humidity 0-90, 10% per step, and the weight change was less than 0.002% in each step of 10 minutes.

[3] = accelerated stability test (XRPD comparison); conditions: 40° C. and humidity of 75% RH; XRPD FIGS. 15, 16 and 29
Method: as §1, §2, §3
(§5) Model: DHG-9011A (Shanghai Jinghong Experimental Equipment Co., Ltd.) Programmable drug stability constant temperature and humidity tester
Model: CMA-100C (Shanghai Puhan Precision Equipment Co., Ltd.)
as §4

[4] = light stability test (XRPD comparison); conditions: 25° C. and 4500 lux of light, 5 d and 10 d; XRPD FIGS. 11, 12 and 27
Method: as §1, §2, §3
Model: Shanghai Yiheng Scientific Instrument Co., Ltd., MGC-100
as §4
(1) The test products were respectively placed under 25° C. and 4500 lux of light and tested for 5 d and 10 d stability, and the results are shown in FIGS. 11, 12 and 27.

[5] = high-temperature stability test (XRPD comparison); conditions: 60° C., 5 d and 10 d; XRPD FIGS. 13, 14 and 28
Method: as §1, §2, §3
Electrothermal Constant-Temperature Dry Box
as §5, §4
(2) The test products were respectively placed under 60° C. and tested for 5 d and 10 d stability, and the results are shown in FIGS. 13, 14 and 28.

SMILES: C[C@@H](C(=O)Nc1ccc(Cl)cc1)[C@H]1CC[C@@H](c2ccnc3ccc(F)cc32)CC1 [Form B, (R)—N-(4-chlorophenyl)-2-(cis-4-(6-fluoroquinolin-4-yl)cyclohexyl)propanamide]
- high-humidity stability [1]: good stability
- water adsorption (hygroscopic curve, DVS) [2]: do not adsorb water
- accelerated stability [3]: good stability
- light stability [4]: good stability
- high-temperature stability [5]: good stability

SMILES: C[C@@H](C(=O)Nc1ccc(Cl)cc1)[C@H]1CC[C@@H](c2ccnc3ccc(F)cc32)CC1 [Form C, (R)—N-(4-chlorophenyl)-2-(cis-4-(6-fluoroquinolin-4-yl)cyclohexyl)propanamide]
- high-humidity stability [1]: good stability
- water adsorption (hygroscopic curve, DVS) [2]: do not adsorb water
- accelerated stability [3]: good stability
- light stability [4]: good stability
- high-temperature stability [5]: good stability

SMILES: C[C@@H](C(=O)Nc1ccc(Cl)cc1)[C@H]1CC[C@@H](c2ccnc3ccc(F)cc32)CC1 [amorphous active pharmaceutical ingredient] [(R)—N-(4-chlorophenyl)-2-(cis-4-(6-fluoroquinolin-4-yl)cyclohexyl)propanamide, reference compound]
- high-humidity stability [1]: good stability
- water adsorption (hygroscopic curve, DVS) [2]: large hygroscopicity
- accelerated stability [3]: good stability
- light stability [4]: good stability
- high-temperature stability [5]: good stability
